Experimental data reported in the NIST ThermoML archive (doi:10.1016/j.tca.2011.02.004).

What was measured:
[1] = 101.3 kPa, Liquid; for speed of sound: Linear variable-path acoustic interferometer; for mass density: Pycnometric method
[2] = xn = mol fraction of the nth substance listed; settings: 101 kPa, Liquid; for speed of sound: Linear variable-path acoustic interferometer; for mass density: Pycnometric method

CCN(CC)c1ccccc1 [N,N-diethylaniline]
[1]
Settings | mass density [kg/m3] | speed of sound [m/s]
303.15 K | 926.2 | 1434
313.15 K | 917.6 | 1396
323.15 K | 909.2 | 1358

CCN(CC)c1ccccc1 [N,N-diethylaniline] + C1CCOC1
[2]
Settings | mass density, 303.15 K [kg/m3] | mass density, 313.15 K [kg/m3] | mass density, 323.15 K [kg/m3] | speed of sound, 303.15 K [m/s] | speed of sound, 313.15 K [m/s] | speed of sound, 323.15 K [m/s]
x2 = 0 | 926.2 | 917.6 | 909.2 | 1434 | 1396 | 1358
x2 = 0.0933 | 923.9 | 915.7 | 907.8 | 1428 | 1390 | 1354
x2 = 0.1907 | 921.2 | 913.3 | 905.7 | 1418 | 1379 | 1343
x2 = 0.2899 | 918.2 | 910.4 | 903 | 1405 | 1366 | 1330
x2 = 0.3879 | 914.9 | 907.1 | 899.6 | 1390 | 1351 | 1315
x2 = 0.4892 | 910.8 | 903.2 | 895.3 | 1372 | 1333 | 1296
x2 = 0.5937 | 906 | 898.4 | 890.5 | 1352 | 1312 | 1275
x2 = 0.6904 | 900.9 | 893.1 | 885.1 | 1331 | 1291 | 1252
x2 = 0.7948 | 894.3 | 886.2 | 878.1 | 1307 | 1265 | 1226
x2 = 0.8935 | 886.9 | 877.9 | 869.2 | 1283 | 1240 | 1200

CCN(CC)c1ccccc1 [N,N-diethylaniline] + CC(C)OC(C)C
[2]
Settings | mass density, 303.15 K [kg/m3] | mass density, 313.15 K [kg/m3] | mass density, 323.15 K [kg/m3] | speed of sound, 303.15 K [m/s] | speed of sound, 313.15 K [m/s] | speed of sound, 323.15 K [m/s]
x2 = 0 | 926.2 | 917.6 | 909.2 | 1434 | 1396 | 1358
x2 = 0.078 | 914.4 | 906.8 | 899 | 1403 | 1367 | 1332
x2 = 0.1606 | 901 | 893.6 | 886.6 | 1370 | 1336 | 1302
x2 = 0.2581 | 884 | 876.7 | 870.2 | 1330 | 1296 | 1261
x2 = 0.3421 | 868.5 | 861.1 | 854.7 | 1295 | 1260 | 1224
x2 = 0.4336 | 850.7 | 843 | 836.7 | 1255 | 1218 | 1182
x2 = 0.5341 | 829.8 | 822.1 | 815.7 | 1209 | 1171 | 1134
x2 = 0.6457 | 804.7 | 797.1 | 790.6 | 1156 | 1117 | 1080
x2 = 0.7545 | 778.3 | 770.6 | 764 | 1103 | 1063 | 1023
x2 = 0.8762 | 746.7 | 738.3 | 730.8 | 1042 | 1000 | 958

CN(C)c1ccccc1 [N,N-dimethylaniline]
[1]
Settings | mass density [kg/m3] | speed of sound [m/s]
303.15 K | 948.4 | 1468
313.15 K | 939.8 | 1431
323.15 K | 931.5 | 1393

CN(C)c1ccccc1 [N,N-dimethylaniline] + C1CCOC1
[2]
Settings | mass density, 303.15 K [kg/m3] | mass density, 313.15 K [kg/m3] | mass density, 323.15 K [kg/m3] | speed of sound, 303.15 K [m/s] | speed of sound, 313.15 K [m/s] | speed of sound, 323.15 K [m/s]
x2 = 0 | 948.4 | 939.8 | 931.5 | 1468 | 1431 | 1393
x2 = 0.0683 | 945.8 | 937.5 | 929.5 | 1459 | 1424 | 1391
x2 = 0.1883 | 940.8 | 932.9 | 925.2 | 1439 | 1408 | 1376
x2 = 0.2797 | 936.7 | 928.6 | 921.1 | 1423 | 1391 | 1359
x2 = 0.389 | 931 | 922.9 | 915.3 | 1403 | 1370 | 1337
x2 = 0.4723 | 926.2 | 918 | 910.2 | 1387 | 1354 | 1319
x2 = 0.5757 | 919.3 | 911.1 | 903 | 1365 | 1331 | 1294
x2 = 0.6813 | 910.9 | 902.8 | 894.4 | 1340 | 1304 | 1267
x2 = 0.7866 | 901.1 | 893.2 | 884.2 | 1314 | 1276 | 1238
x2 = 0.8909 | 890.1 | 881.4 | 871.7 | 1287 | 1246 | 1206

CN(C)c1ccccc1 [N,N-dimethylaniline] + CC(C)OC(C)C
[2]
Settings | mass density, 303.15 K [kg/m3] | mass density, 313.15 K [kg/m3] | mass density, 323.15 K [kg/m3] | speed of sound, 303.15 K [m/s] | speed of sound, 313.15 K [m/s] | speed of sound, 323.15 K [m/s]
x2 = 0 | 948.4 | 939.8 | 931.5 | 1468 | 1431 | 1393
x2 = 0.0741 | 932.6 | 924.8 | 916.9 | 1430 | 1396 | 1360
x2 = 0.1589 | 914 | 906.5 | 898.6 | 1385 | 1353 | 1318
x2 = 0.2428 | 895.3 | 887.5 | 879.6 | 1342 | 1311 | 1277
x2 = 0.3355 | 874.3 | 866.2 | 858.3 | 1296 | 1262 | 1229
x2 = 0.4294 | 852.6 | 844.2 | 836.3 | 1250 | 1214 | 1182
x2 = 0.5338 | 827.8 | 819.2 | 811.5 | 1199 | 1161 | 1128
x2 = 0.6362 | 802.8 | 794.1 | 786.4 | 1149 | 1112 | 1078
x2 = 0.7466 | 775.2 | 766.4 | 758.5 | 1096 | 1059 | 1024
x2 = 0.8676 | 744.8 | 735.7 | 726.9 | 1038 | 1000 | 961

CC(C)OC(C)C [diisopropyl ether]
[1]
Settings | mass density [kg/m3] | speed of sound [m/s]
303.15 K | 712.9 | 976
313.15 K | 702.5 | 932
323.15 K | 691.9 | 889

CC(C)OC(C)C [diisopropyl ether] + CCN(CC)c1ccccc1
[2], x1 = 1
Settings | mass density [kg/m3] | speed of sound [m/s]
303.15 K | 712.9 | 976
313.15 K | 702.5 | 932
323.15 K | 691.9 | 889

CC(C)OC(C)C [diisopropyl ether] + CN(C)c1ccccc1
[2], x1 = 1
Settings | mass density [kg/m3] | speed of sound [m/s]
303.15 K | 712.9 | 976
313.15 K | 702.5 | 932
323.15 K | 691.9 | 889

C1CCOC1 [tetrahydrofuran]
[1]
Settings | mass density [kg/m3] | speed of sound [m/s]
303.15 K | 876.9 | 1254
313.15 K | 865.7 | 1207
323.15 K | 854.8 | 1165

C1CCOC1 [tetrahydrofuran] + CCN(CC)c1ccccc1
[2], x1 = 1
Settings | mass density [kg/m3] | speed of sound [m/s]
303.15 K | 876.9 | 1254
313.15 K | 865.7 | 1207
323.15 K | 854.8 | 1165

C1CCOC1 [tetrahydrofuran] + CN(C)c1ccccc1
[2], x1 = 1
Settings | mass density [kg/m3] | speed of sound [m/s]
303.15 K | 876.9 | 1254
313.15 K | 865.7 | 1207
323.15 K | 854.8 | 1165
